Data taken from ChEMBL document CHEMBL6134844, “Development of Next-Generation Antimalarial Acridones with Radical Cure Potential” (J Med Chem, 2025).
pIC50: −log10 of the molar value.

Legend:
[1] = test system: Plasmodium falciparum; assay: Antiplasmodial activity against asexual blood-stage (ABS) MDR Plasmodium falciparum Dd2 infected in human erythrocytes assessed as reduction in fluorescence measured after 72 hrs by Malaria SYBR Green I-based Fluorescence (MSF) assay; type: functional, organism-based; settings: Dd2, Erythrocyte
[2] = Toxicity in CF1 mouse infected with asexual blood-stage (ABS) Plasmodium yoelii MRA-428 assessed as lethargy at 0.3 to 30 mg/kg, po treated 24 hrs post infection measured after 4 days; type: organism-based; settings: in vivo, 96 h, dose 0.3-30 mg/kg, time 4 day
[3] = test system: Plasmodium cynomolgi; assay: (§1) Antiplasmodial activity against hypnozoite Plasmodium cynomolgi B strain infected in Macaca mulatta hepatocytes incubated with sporozoite containing salivary gland homogenate obtained from dissected Anopheles dirus mosquitoes (infected with Plasmodium cynomolgi B strain) treatment started on day 4 post infection and continued daily for 4 days into fresh changed media until day 8 assessed as Liver stage (LS) activity by measuring prophylactic mode by immunofluorescent staining analysis; type: functional, organism-based; settings: Hepatocyte
[4] = test system: Plasmodium falciparum; assay: Antiplasmodial activity against asexual blood-stage (ABS) ATV-resistant clinical isolate Plasmodium falciparum Tm90-C2B infected in human erythrocytes assessed as reduction in fluorescence measured after 72 hrs by Malaria SYBR Green I-based Fluorescence (MSF) assay; type: functional, organism-based; settings: Erythrocyte
[5] = test system: Plasmodium cynomolgi; assay: as §1, with “schizont” for “hypnozoite”; type: functional, organism-based; settings: Hepatocyte
[6] = test system: Plasmodium cynomolgi; assay: as §1, with “schizont” for “hypnozoite”, “radical cure” for “prophylactic”; type: functional, organism-based; settings: Hepatocyte
[7] = test system: Hepatocyte; assay: Cytotoxicity against Macaca mulatta hepatocytes assessed as cell viability measured after 48 hrs by MTT assay; type: toxicity, cell-based; settings: rhesus monkey, 48 h
[8] = Toxicity in CF1 mouse infected with asexual blood-stage (ABS) Plasmodium yoelii MRA-428 assessed as hyperactivity at 0.3 to 30 mg/kg, po treated 24 hrs post infection measured after 4 days; type: organism-based; settings: in vivo, 96 h, dose 0.3-30 mg/kg, time 4 day
[9] = test system: HepG2; assay: Cytotoxicity against human HepG2 cells assessed as cell viability measured after 48 hrs by MTT assay; type: functional, cell-based; settings: HepG2, 48 h
[10] = Toxicity in CF1 mouse infected with asexual blood-stage (ABS) Plasmodium yoelii MRA-428 assessed as hunching at 0.3 to 30 mg/kg, po treated 24 hrs post infection measured after 4 days; type: organism-based; settings: in vivo, 96 h, dose 0.3-30 mg/kg, time 4 day
[11] = test system: Plasmodium cynomolgi; assay: as §1, with “radical cure” for “prophylactic”; type: functional, organism-based; settings: Hepatocyte
[12] = test system: Plasmodium falciparum; assay: Antiplasmodial activity against asexual blood-stage (ABS) CQ-sensitive Plasmodium falciparum D6 infected in human erythrocytes assessed as reduction in fluorescence measured after 72 hrs by Malaria SYBR Green I-based Fluorescence (MSF) assay; type: functional, organism-based; settings: D6, Erythrocyte
[13] = Toxicity in CF1 mouse infected with asexual blood-stage (ABS) Plasmodium yoelii MRA-428 assessed as weight loss at 0.3 to 30 mg/kg, po treated 24 hrs post infection measured after 4 days; type: organism-based; settings: in vivo, 96 h, dose 0.3-30 mg/kg, time 4 day
[14] = Toxicity in CF1 mouse infected with asexual blood-stage (ABS) Plasmodium yoelii MRA-428 assessed as ruffled hair at 0.3 to 30 mg/kg, po treated 24 hrs post infection measured after 4 days; type: organism-based; settings: in vivo, 96 h, dose 0.3-30 mg/kg, time 4 day
[15] = mouse, microsomes, 1 h
[16] = as §1, with “Selectivity index, ratio of CC50 for Macaca mulatta hepatocytes to IC50 for antiplasmodial” for “Antiplasmodial”, “schizont” for “hypnozoite”; type: toxicity, cell-based; settings: rhesus monkey, read-out: Selectivity Index
[17] = as §1, with “Selectivity index, ratio of CC50 for Macaca mulatta hepatocytes to IC50 for antiplasmodial” for “Antiplasmodial”; type: toxicity, cell-based; settings: rhesus monkey, read-out: Selectivity Index

Structure (SMILES) | pIC50 [1] | Activity [2] | pIC50 [3] | pIC50 [4] | pIC50 [5] | pIC50 [6] | CC50 [7] [µM] | Activity [8] | pIC50 [9] | Activity [10] | pIC50 [11] | pIC50 [12] | Activity [13] | Activity [14] | CLH [15] [µL/min/mg] | selectivity ratio at 96 h [16] | selectivity ratio at 96 h [17]
CCCN(CCC)CCOc1ccc2c(=O)c3c([nH]c2c1)CCCC3 | 7.19 | Non-toxic | < 4.70 | 7.34 | 5.01 | < 4.70 | > 20 | Non-toxic | < 3.70 | Non-toxic | < 4.70 | 7.61 | Non-toxic | Non-toxic | 492 | > 2.03 | –
O=c1c2c([nH]c3cc(OCc4ccc(OC(F)(F)F)cc4)ccc13)CCCC2 | 7.56 | Non-toxic | < 4.70 | 7.36 | 5.44 | < 4.70 | > 20 | Non-toxic | < 3.70 | Non-toxic | < 4.70 | 8.22 | Non-toxic | Non-toxic | 31.9 | > 5.52 | –
CCCCN(CCCC)CCCOc1ccc2c(=O)c3c([nH]c2c1)CCCC3 | 7.40 | Non-toxic | < 4.70 | 7.22 | 5.31 | < 4.70 | > 20 | Non-toxic | < 3.70 | Non-toxic | < 4.70 | 8.14 | Non-toxic | Non-toxic | > 500 | > 4.06 | –
O=c1c2c([nH]c3cc(Oc4ccccc4OC(F)(F)F)ccc13)CCCC2 | 9.77 | Non-toxic | 5.11 | 9.56 | 6.19 | < 4.70 | > 20 | Non-toxic | < 3.70 | Non-toxic | < 4.70 | 10.64 | Non-toxic | Non-toxic | 72.1 | > 31.2 | > 2.59
CCCN(CCC)CCNc1ccc2c(=O)c3c([nH]c2c1)CCCC3 | < 5.60 | Non-toxic | < 4.70 | < 5.60 | < 4.70 | < 4.70 | > 20 | Non-toxic | – | Non-toxic | < 4.70 | < 5.60 | Non-toxic | Non-toxic | > 500 | – | –
CN(C)CCOc1ccc2c(=O)c3c([nH]c2c1)CCCC3 | < 5.60 | Non-toxic | < 4.70 | < 5.60 | < 4.70 | < 4.70 | > 20 | Non-toxic | – | Non-toxic | < 4.70 | < 5.60 | Non-toxic | Non-toxic | > 500 | – | –
O=c1c2c([nH]c3cc(OC(F)(F)F)ccc13)CCCC2 | 7.07 | Non-toxic | < 4.70 | 7.23 | 5.40 | < 4.70 | > 20 | Non-toxic | < 3.70 | Non-toxic | < 4.70 | 7.28 | Non-toxic | Non-toxic | 21.3 | > 5.05 | –
